Results taken from ChEMBL document CHEMBL1134150, “Synthesis and antiproliferative activity of some thiazolylbenzimidazole-4,7-diones” (Bioorg Med Chem Lett, 2001).
pIC50: −log10 of the molar value.

Key:
K562 = assay: Antiproliferative activity tested as 50% inhibition of DNA synthesis in human K562 erythroleukemia cell line; format: functional, cell-based
SW-620 = assay: Antiproliferative activity tested as 50% inhibition of DNA synthesis in human SW620 colon carcinoma cell line; format: functional, cell-based

CCOC(=O)c1csc(-c2nc3c([nH]2)C(=O)C=CC3=O)n1 showed a pIC50 (K562) of 4.79 and a pIC50 (SW-620) of 5.85.

COC1=CC(=O)c2[nH]c(-c3nc(C(=O)O)cs3)nc2C1=O showed a pIC50 (K562) of 4.82 and a pIC50 (SW-620) of 4.92.

Work on CCOC(=O)c1csc(-c2nc3c([nH]2)C(=O)C=C(OC)C3=O)n1 yielded a pIC50 (K562) of 5.94 and a pIC50 (SW-620) of 4.88.

NC(=O)c1csc(-c2nc3c([nH]2)C(=O)C=CC3=O)n1 gave a pIC50 (K562) of 5.11 and a pIC50 (SW-620) of 5.52.

Work on O=C(O)c1csc(-c2nc3c([nH]2)C(=O)C=CC3=O)n1 yielded a pIC50 (K562) of 4.75 and a pIC50 (SW-620) of 5.06.

In the case of COC1=CC(=O)c2[nH]c(-c3nc(C(N)=O)cs3)nc2C1=O, the pIC50 (K562) was 5.88 and the pIC50 (SW-620) was 4.80.

In the case of COc1cccc2c1C(=O)c1c(O)c3c(c(O)c1C2=O)C[C@@](O)(C(=O)CO)C[C@@H]3O[C@H]1C[C@H](N)[C@H](O)[C@H](C)O1 [DOXORUBICIN], the pIC50 (K562) was 6.21 and the pIC50 (SW-620) was 6.12.
